Results from ChEMBL document CHEMBL5584362, “Sucurchalasins A and B, Sulfur-Containing Heterodimers of a Cytochalasan and a Macrolide from the Endophytic Fungus Aspergillus spelaeus GDGJ-286” (J Nat Prod, 2024).
pIC50: −log10 of the molar value. Active and inactive are the calls of the source. The rule behind the calls is not given here.

system: Salmonella typhi; assay: Antibacterial activity against Salmonella typhi at 25 ug/ml measured after 20 to 45 mins by broth microdilution method; assay type: functional, organism-based; conditions: Salmonella enterica subsp. enterica serovar Typhi; dose 25.0 µg/ml, time 20-45 min

Row | SMILES | Activity
1 | CC1=C[C@@H]2/C=C(\C)CC[C@@H](O)C(=O)C[C@@H](S[C@@H]3CCC[C@H](C)OC(=O)Cc4cc(O)cc(O)c4C(=O)C3)C(=O)[C@]23C(=O)N[C@@H](CC(C)C)[C@@H]3[C@@H]1C | inactive

system: A2780; assay: Cytotoxicity against human A2780 cells by MTT assay; assay type: functional, cell-based; conditions: not given

Row | SMILES | pIC50
2 | CC1=C[C@@H]2/C=C(\C)CC[C@@H](O)C(=O)C[C@@H](S[C@@H]3CCC[C@H](C)OC(=O)Cc4cc(O)cc(O)c4C(=O)C3)C(=O)[C@]23C(=O)N[C@@H](CC(C)C)[C@@H]3[C@@H]1C | 5.41

system: SK-OV-3; assay: Cytotoxicity against human SK-OV-3 cells by MTT assay; assay type: functional, cell-based; conditions: not given

Row | SMILES | pIC50
3 | CC1=C[C@@H]2/C=C(\C)CC[C@@H](O)C(=O)C[C@@H](S[C@@H]3CCC[C@H](C)OC(=O)Cc4cc(O)cc(O)c4C(=O)C3)C(=O)[C@]23C(=O)N[C@@H](CC(C)C)[C@@H]3[C@@H]1C | 4.89

system: HeLa; assay: Cytotoxicity against human HeLa cells by MTT assay; assay type: functional, cell-based; conditions: not given

Row | SMILES | pIC50
4 | CC1=C[C@@H]2/C=C(\C)CC[C@@H](O)C(=O)C[C@@H](S[C@@H]3CCC[C@H](C)OC(=O)Cc4cc(O)cc(O)c4C(=O)C3)C(=O)[C@]23C(=O)N[C@@H](CC(C)C)[C@@H]3[C@@H]1C | 5.00

system: HepG2; assay: Cytotoxicity against human HepG2 cells by MTT assay; assay type: functional, cell-based; conditions: not given

Row | SMILES | pIC50
5 | CC1=C[C@@H]2/C=C(\C)CC[C@@H](O)C(=O)C[C@@H](S[C@@H]3CCC[C@H](C)OC(=O)Cc4cc(O)cc(O)c4C(=O)C3)C(=O)[C@]23C(=O)N[C@@H](CC(C)C)[C@@H]3[C@@H]1C | 4.82

system: A2780; assay: Induction of apoptosis in human A2780 cells assessed as chromatin condensation at 1 to 9 uM measured after 48 hrs by Hoechst 33258 staining based assay; assay type: functional, cell-based; conditions: dose 1-9 µM

Row | SMILES | Activity
6 | CC1=C[C@@H]2/C=C(\C)CC[C@@H](O)C(=O)C[C@@H](S[C@@H]3CCC[C@H](C)OC(=O)Cc4cc(O)cc(O)c4C(=O)C3)C(=O)[C@]23C(=O)N[C@@H](CC(C)C)[C@@H]3[C@@H]1C | Active

system: A2780; assay: Induction of apoptosis in human A2780 cells assessed as chromatin fragmentation at 1 to 9 uM measured after 48 hrs by Hoechst 33258 staining based assay; assay type: functional, cell-based; conditions: dose 1-9 µM

Row | SMILES | Activity
7 | CC1=C[C@@H]2/C=C(\C)CC[C@@H](O)C(=O)C[C@@H](S[C@@H]3CCC[C@H](C)OC(=O)Cc4cc(O)cc(O)c4C(=O)C3)C(=O)[C@]23C(=O)N[C@@H](CC(C)C)[C@@H]3[C@@H]1C | Active

system: A2780; assay: Induction of apoptosis in human A2780 cells assessed as increase in early apoptotic cells measured after 48 hrs by Annexin V-FITC/PI staining based FACS analysis; assay type: functional, cell-based; conditions: dose 1-9 µM

Row | SMILES | Activity
8 | CC1=C[C@@H]2/C=C(\C)CC[C@@H](O)C(=O)C[C@@H](S[C@@H]3CCC[C@H](C)OC(=O)Cc4cc(O)cc(O)c4C(=O)C3)C(=O)[C@]23C(=O)N[C@@H](CC(C)C)[C@@H]3[C@@H]1C | Dose-Dependent Effect

system: A2780; assay: Induction of apoptosis in human A2780 cells assessed as increase in late apoptotic cells measured after 48 hrs by Annexin V-FITC/PI staining based FACS analysis; assay type: functional, cell-based; conditions: dose 1-9 µM

Row | SMILES | Activity
9 | CC1=C[C@@H]2/C=C(\C)CC[C@@H](O)C(=O)C[C@@H](S[C@@H]3CCC[C@H](C)OC(=O)Cc4cc(O)cc(O)c4C(=O)C3)C(=O)[C@]23C(=O)N[C@@H](CC(C)C)[C@@H]3[C@@H]1C | Dose-Dependent Effect

system: A2780; assay: Induction of apoptosis in human A2780 cells assessed as viable cells at 1 uM measured after 48 hrs by Annexin V-FITC/PI staining based FACS analysis (reference value: 92.6 to 92.8%); assay type: functional; conditions: read-out: Activity

Row | SMILES | viability at 1 µM
10 | CC1=C[C@@H]2/C=C(\C)CC[C@@H](O)C(=O)C[C@@H](S[C@@H]3CCC[C@H](C)OC(=O)Cc4cc(O)cc(O)c4C(=O)C3)C(=O)[C@]23C(=O)N[C@@H](CC(C)C)[C@@H]3[C@@H]1C | 94%

system: A2780; assay: Induction of apoptosis in human A2780 cells assessed as early apoptotic cells at 1 uM measured after 48 hrs by Annexin V-FITC/PI staining based FACS analysis (reference value: 1.68 to 1.9%); assay type: functional; conditions: not given

Row | SMILES | Activity
11 | CC1=C[C@@H]2/C=C(\C)CC[C@@H](O)C(=O)C[C@@H](S[C@@H]3CCC[C@H](C)OC(=O)Cc4cc(O)cc(O)c4C(=O)C3)C(=O)[C@]23C(=O)N[C@@H](CC(C)C)[C@@H]3[C@@H]1C | 1.35%

system: A2780; assay: Induction of apoptosis in human A2780 cells assessed as late apoptotic cells at 1 uM measured after 48 hrs by Annexin V-FITC/PI staining based FACS analysis (reference value: 2.32 to 2.4%); assay type: functional; conditions: not given

Row | SMILES | Activity
12 | CC1=C[C@@H]2/C=C(\C)CC[C@@H](O)C(=O)C[C@@H](S[C@@H]3CCC[C@H](C)OC(=O)Cc4cc(O)cc(O)c4C(=O)C3)C(=O)[C@]23C(=O)N[C@@H](CC(C)C)[C@@H]3[C@@H]1C | 1.71%

system: A2780; assay: Induction of apoptosis in human A2780 cells assessed as necrotic cells at 1 uM measured after 48 hrs by Annexin V-FITC/PI staining based FACS analysis (reference value: 1.34 to 3.3%); assay type: functional; conditions: not given

Row | SMILES | Activity
13 | CC1=C[C@@H]2/C=C(\C)CC[C@@H](O)C(=O)C[C@@H](S[C@@H]3CCC[C@H](C)OC(=O)Cc4cc(O)cc(O)c4C(=O)C3)C(=O)[C@]23C(=O)N[C@@H](CC(C)C)[C@@H]3[C@@H]1C | 2.91%
